Activity calls are given as the source filed them.
Assays:
[1] = target: Peroxisome proliferator-activated receptor gamma/Nuclear receptor coactivator 1 (Homo sapiens, UniProt P37231); assay: (§1) TR-FRET dose response biochemical High Throughput Screening assay for agonists of the steroid receptor coactivator 1 (SRC-1) recruitment by the peroxisome proliferator-activated receptor gamma (PPAR gamma): non-selective agonists. [Related pubchem assays (depositor defined):AID1300, AID1808, AID504735, AID631]; type: protein assay
[2] = target: Peroxisome proliferator-activated receptor gamma/Nuclear receptor coactivator 3 (Homo sapiens, UniProt P37231); assay: as §1, with “3 (SRC-3)” for “1 (SRC-1)”, “assays: 1301 (Confirmation screen.), 1048 (Primary screen.)]” for “assays (depositor defined):AID1300, AID1808, AID504735, AID631]”; type: functional
Sequence of Peroxisome proliferator-activated receptor gamma/Nuclear receptor coactivator 3 (P37231 whole entry): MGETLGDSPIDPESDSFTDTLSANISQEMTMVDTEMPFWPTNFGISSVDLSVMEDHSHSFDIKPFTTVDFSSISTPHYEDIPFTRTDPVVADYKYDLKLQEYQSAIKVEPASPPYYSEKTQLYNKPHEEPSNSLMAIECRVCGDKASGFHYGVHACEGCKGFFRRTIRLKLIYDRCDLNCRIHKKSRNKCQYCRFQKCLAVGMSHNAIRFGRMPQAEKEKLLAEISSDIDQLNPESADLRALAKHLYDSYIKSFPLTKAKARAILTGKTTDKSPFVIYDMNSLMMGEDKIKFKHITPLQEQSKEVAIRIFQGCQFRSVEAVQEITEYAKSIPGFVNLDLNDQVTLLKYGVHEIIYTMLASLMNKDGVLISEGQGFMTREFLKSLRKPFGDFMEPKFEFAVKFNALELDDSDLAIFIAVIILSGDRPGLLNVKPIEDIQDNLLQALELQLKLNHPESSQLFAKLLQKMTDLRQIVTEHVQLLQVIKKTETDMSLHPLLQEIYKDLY
Sequence of Peroxisome proliferator-activated receptor gamma/Nuclear receptor coactivator 3 (Q9Y6Q9 whole entry, further chain): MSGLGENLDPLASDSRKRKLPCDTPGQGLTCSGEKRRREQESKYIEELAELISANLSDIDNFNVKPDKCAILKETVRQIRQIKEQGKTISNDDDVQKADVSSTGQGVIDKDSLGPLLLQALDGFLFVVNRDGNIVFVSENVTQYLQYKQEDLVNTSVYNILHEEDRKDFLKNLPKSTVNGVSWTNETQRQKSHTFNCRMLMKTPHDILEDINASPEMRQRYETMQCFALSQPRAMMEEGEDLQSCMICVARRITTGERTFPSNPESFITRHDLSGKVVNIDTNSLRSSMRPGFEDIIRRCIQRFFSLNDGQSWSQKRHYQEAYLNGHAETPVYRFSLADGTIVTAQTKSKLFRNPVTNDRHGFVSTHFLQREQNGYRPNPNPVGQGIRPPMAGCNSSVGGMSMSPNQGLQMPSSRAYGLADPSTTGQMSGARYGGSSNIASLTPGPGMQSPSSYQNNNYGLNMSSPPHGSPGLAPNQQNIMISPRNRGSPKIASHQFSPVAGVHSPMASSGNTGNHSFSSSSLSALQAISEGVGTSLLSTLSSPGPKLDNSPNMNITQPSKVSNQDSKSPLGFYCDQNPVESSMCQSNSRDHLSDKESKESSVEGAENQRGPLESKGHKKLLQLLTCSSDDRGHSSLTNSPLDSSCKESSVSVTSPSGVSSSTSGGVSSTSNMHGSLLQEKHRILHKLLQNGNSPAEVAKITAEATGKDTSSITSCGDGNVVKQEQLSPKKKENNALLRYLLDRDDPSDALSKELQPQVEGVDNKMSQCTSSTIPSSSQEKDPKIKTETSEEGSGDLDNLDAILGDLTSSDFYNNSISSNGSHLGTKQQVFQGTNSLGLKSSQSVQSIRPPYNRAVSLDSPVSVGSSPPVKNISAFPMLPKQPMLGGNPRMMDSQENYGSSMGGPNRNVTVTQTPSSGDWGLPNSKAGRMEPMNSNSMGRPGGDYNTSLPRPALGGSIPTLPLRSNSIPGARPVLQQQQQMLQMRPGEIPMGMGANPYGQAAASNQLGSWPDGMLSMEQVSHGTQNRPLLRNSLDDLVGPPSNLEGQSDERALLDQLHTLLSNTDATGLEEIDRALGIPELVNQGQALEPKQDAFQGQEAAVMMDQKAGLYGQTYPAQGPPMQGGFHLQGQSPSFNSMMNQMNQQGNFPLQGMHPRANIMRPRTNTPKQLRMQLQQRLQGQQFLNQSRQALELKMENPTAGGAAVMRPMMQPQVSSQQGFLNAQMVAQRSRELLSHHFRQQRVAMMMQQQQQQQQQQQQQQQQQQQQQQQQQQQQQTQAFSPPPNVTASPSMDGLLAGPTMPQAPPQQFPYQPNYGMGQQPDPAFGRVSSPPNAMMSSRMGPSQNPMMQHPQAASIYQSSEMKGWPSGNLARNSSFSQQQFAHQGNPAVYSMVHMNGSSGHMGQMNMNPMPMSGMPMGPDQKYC

[3] = target: Peroxisome proliferator-activated receptor gamma/Nuclear receptor coactivator 2 (Homo sapiens, UniProt P37231); assay: TR-FRET dose response biochemical High Throughput Screening assay for agonists of the steroid receptor coactivator 2 (SRC-2) recruitment by the peroxisome proliferator-activated receptor gamma (PPAR gamma): non-selective agonists. [Related pubchem assays: 1297, 1032 ]; type: functional
[4] = target: Voltage-gated inwardly rectifying potassium channel KCNH2 (Homo sapiens, UniProt Q12809); assay: hERG protection from proarrhythmic block, potency, dose response, cell-based, thallium flux (AID 2121); type: ADME
Sequence of Voltage-gated inwardly rectifying potassium channel KCNH2 (Q12809 whole entry): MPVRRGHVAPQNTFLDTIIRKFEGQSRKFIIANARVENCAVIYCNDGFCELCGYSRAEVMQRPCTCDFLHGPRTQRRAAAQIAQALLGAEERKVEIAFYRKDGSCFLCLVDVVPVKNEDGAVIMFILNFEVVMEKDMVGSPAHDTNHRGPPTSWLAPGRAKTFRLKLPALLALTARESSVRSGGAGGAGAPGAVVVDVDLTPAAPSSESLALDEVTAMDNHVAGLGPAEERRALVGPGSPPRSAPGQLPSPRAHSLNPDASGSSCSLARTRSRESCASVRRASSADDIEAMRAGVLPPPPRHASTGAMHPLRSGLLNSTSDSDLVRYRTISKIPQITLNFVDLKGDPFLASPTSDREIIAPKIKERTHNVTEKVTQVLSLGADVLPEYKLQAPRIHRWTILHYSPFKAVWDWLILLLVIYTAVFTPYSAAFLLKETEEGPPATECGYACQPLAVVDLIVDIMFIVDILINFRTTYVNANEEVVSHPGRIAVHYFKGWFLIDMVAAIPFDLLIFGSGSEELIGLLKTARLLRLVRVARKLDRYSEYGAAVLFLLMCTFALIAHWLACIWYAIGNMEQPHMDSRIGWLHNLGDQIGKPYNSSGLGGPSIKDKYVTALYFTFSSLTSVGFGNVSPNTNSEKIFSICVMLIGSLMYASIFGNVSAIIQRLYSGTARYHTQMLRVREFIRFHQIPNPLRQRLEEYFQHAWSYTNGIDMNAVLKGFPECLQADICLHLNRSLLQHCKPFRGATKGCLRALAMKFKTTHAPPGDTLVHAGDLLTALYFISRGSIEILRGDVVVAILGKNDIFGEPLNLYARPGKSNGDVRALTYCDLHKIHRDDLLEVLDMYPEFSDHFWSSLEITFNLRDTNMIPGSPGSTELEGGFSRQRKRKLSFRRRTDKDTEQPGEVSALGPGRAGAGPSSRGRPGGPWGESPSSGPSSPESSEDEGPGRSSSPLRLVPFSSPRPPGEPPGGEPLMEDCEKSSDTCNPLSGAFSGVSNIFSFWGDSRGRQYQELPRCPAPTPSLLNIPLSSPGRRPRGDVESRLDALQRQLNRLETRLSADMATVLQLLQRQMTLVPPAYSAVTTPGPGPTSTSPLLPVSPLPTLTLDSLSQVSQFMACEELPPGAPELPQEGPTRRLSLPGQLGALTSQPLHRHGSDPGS

Hexokinase HKDC1 = target: T1, Hexokinase HKDC1 (Homo sapiens, UniProt Q2TB90); assay: HKDC1 hexokinase activators, dose response, biochemical, W721R variant (AID 504730); type: functional
T1 sequence (Q2TB90 whole entry): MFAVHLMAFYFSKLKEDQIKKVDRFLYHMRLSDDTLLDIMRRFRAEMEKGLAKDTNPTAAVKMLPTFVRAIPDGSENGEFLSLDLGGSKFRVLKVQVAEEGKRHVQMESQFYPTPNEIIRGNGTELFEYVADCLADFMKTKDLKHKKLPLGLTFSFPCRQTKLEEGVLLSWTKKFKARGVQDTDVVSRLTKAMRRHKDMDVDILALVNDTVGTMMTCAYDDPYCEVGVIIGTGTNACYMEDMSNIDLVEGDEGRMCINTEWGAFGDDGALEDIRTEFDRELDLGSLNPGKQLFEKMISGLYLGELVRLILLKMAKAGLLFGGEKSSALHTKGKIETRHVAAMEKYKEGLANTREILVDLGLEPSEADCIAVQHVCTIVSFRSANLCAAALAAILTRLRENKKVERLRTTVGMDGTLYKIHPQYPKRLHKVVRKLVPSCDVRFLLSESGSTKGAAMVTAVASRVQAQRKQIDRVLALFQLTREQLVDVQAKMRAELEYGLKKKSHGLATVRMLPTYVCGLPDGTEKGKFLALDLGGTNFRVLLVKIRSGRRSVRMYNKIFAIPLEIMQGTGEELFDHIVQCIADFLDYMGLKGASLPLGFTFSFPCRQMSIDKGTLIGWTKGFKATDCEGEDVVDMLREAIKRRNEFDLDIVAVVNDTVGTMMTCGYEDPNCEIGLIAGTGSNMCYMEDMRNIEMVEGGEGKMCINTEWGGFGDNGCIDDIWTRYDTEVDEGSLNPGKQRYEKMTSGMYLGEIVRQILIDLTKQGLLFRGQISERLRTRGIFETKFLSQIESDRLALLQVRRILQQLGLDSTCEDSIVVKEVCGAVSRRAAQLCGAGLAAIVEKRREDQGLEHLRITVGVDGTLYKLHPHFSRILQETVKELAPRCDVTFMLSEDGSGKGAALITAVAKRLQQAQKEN

Hexokinase-1 = target: T2, Hexokinase-1 (Homo sapiens, UniProt P19367); assay: hexokinase 1 activators, dose response, selectivity assay for HKDC1 activator project, biochemical (AID 504762); type: functional
T2 sequence (P19367 whole entry): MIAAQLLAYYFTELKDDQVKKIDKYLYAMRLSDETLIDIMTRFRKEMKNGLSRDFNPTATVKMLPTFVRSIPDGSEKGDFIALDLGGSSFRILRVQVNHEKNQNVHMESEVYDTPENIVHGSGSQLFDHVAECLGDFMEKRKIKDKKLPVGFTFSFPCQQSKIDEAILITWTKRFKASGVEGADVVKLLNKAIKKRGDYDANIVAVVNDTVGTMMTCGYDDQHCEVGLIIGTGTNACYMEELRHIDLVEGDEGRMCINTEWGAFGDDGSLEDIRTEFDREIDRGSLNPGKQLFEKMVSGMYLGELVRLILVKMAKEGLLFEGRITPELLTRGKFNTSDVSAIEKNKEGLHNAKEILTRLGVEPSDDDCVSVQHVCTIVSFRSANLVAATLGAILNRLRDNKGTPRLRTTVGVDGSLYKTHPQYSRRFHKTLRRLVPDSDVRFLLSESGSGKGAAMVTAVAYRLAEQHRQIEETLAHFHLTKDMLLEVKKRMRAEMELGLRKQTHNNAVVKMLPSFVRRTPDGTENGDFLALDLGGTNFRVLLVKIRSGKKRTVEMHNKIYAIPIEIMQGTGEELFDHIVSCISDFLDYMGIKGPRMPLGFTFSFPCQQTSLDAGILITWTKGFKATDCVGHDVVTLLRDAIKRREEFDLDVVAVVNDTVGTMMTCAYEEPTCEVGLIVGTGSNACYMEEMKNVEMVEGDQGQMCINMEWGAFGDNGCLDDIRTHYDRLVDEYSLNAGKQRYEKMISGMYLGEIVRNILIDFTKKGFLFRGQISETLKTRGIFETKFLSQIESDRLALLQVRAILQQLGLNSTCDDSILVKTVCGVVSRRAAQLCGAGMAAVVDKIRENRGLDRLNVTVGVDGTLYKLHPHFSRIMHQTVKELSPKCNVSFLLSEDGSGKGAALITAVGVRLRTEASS

[5] = target: T3, G-protein coupled receptor 35 (Homo sapiens, UniProt Q9HC97); assay: SAR analysis of Agonists of the GPR35 Receptor using an Image-Based Assay - Set 4. [Related pubchem assays (depositor defined):AID2013, AID2026]; type: functional
T3 sequence (Q9HC97 whole entry): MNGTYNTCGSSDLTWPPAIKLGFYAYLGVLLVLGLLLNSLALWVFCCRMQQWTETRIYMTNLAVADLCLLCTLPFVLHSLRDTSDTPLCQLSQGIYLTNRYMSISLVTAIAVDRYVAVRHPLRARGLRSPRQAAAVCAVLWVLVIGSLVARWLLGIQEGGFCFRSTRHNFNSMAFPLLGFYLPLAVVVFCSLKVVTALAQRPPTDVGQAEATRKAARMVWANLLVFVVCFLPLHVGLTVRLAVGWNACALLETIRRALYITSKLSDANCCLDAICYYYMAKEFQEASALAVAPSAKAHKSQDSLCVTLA

Cannabinoid receptor 1 [6] = target: T4, Cannabinoid receptor 1 (Homo sapiens, UniProt P21554); assay: SAR analysis of agonists of the Cannabinoid Receptor 1 using an Image-Based Assay - Set 4. [Related pubchem assays (depositor defined):AID2013, AID2026]; type: functional
T4 sequence (P21554 whole entry): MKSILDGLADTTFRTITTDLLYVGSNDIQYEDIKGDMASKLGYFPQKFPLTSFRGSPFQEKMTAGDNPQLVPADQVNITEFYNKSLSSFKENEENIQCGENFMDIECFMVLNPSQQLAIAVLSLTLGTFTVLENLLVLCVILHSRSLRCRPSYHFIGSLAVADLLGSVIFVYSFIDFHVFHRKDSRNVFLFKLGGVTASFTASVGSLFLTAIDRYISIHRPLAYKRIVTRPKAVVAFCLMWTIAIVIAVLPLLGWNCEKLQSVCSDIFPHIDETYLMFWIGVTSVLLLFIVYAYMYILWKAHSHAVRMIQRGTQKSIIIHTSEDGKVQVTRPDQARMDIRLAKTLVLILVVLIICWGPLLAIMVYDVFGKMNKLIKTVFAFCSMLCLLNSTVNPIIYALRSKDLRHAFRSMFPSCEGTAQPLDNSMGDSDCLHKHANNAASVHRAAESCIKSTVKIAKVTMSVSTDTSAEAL

[7] = target: T3, G-protein coupled receptor 35; assay: SAR analysis of Antagonists of the GPR35 Receptor using an Image-Based Assay - Set 6. [Related pubchem assays (depositor defined):AID2013, AID2026]; type: functional
Cannabinoid receptor 1 [8] = target: T4, Cannabinoid receptor 1; assay: SAR analysis of antagonists of the Cannabinoid Receptor 1 using an Image-Based Assay - Set 4. [Related pubchem assays (depositor defined):AID2013, AID2026]; type: functional
[9] = target: G-protein coupled receptor 55 (Homo sapiens, UniProt Q9Y2T6); assay: SAR Analysis of Selective Antagonists of GPR55 using an Image-Based Assay - Set 4. [Related pubchem assays (depositor defined):AID2013, AID2026]; type: functional;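 also: antagonism of response to 5 µM lysophosphatidylinositol agonist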
Sequence of G-protein coupled receptor 55 (Q9Y2T6 whole entry): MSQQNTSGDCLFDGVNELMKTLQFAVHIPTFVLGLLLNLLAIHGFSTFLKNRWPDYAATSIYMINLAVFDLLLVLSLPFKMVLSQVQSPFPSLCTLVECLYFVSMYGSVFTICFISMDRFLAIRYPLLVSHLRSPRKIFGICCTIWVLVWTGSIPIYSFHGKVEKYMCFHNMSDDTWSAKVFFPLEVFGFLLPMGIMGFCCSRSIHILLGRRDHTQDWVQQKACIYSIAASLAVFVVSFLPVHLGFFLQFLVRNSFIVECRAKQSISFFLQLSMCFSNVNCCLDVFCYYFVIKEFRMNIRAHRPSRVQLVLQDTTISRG

Cannabinoid receptor 2 [10] = target: T5, Cannabinoid receptor 2 (Homo sapiens, UniProt P34972); assay: SAR analysis of antagonists of the Cannabinoid Receptor 2 using an Image-Based Assay - Set 3. [Related pubchem assays (depositor defined):AID2013, AID2026]; type: functional
T5 sequence (P34972 whole entry): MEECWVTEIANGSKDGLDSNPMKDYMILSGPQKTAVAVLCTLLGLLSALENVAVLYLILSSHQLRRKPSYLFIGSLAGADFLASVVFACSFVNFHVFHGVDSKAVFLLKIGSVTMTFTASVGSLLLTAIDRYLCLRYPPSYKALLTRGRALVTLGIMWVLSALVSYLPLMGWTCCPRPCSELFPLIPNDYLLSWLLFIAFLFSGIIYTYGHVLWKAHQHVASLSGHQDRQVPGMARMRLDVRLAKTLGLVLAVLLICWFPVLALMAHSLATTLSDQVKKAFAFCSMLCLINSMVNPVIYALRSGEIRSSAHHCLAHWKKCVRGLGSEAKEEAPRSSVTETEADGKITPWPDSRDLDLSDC

Cannabinoid receptor 2 [11] = target: T5, Cannabinoid receptor 2; assay: SAR analysis of agonists of the Cannabinoid Receptor 2 using an Image-Based Assay - Set 3. [Related pubchem assays (depositor defined):AID2013, AID2026]; type: functional
[12] = target: Tyrosine-protein phosphatase non-receptor type 12 (Homo sapiens, UniProt Q05209); assay: SAR Selectivity Analysis of small molecule inhibitors of PEST using pCAP in a fluorescence assay. [Related pubchem assays (depositor defined):AID1779, AID1784, AID2135]; type: functional
[13] = target: T6, Dual specificity protein phosphatase 3 (Homo sapiens, UniProt P51452); assay: SAR VHR1 absorbance Assay for In Vitro dose response studies. [Related pubchem assays (depositor defined):AID1654, AID1661, AID1878, AID1992, AID2004]
T6 sequence (P51452 whole entry): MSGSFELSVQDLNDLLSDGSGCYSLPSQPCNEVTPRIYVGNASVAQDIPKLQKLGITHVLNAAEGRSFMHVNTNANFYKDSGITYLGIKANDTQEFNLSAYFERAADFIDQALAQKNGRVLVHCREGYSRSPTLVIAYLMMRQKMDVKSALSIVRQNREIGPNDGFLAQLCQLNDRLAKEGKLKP

[14] = target: T6, Dual specificity protein phosphatase 3; assay: SAR VHR1 Fluorescent Assay for In Vitro dose response studies. [Related pubchem assays (depositor defined):AID1654, AID1661, AID1878, AID1992, AID2004, AID2070, AID2085]; type: functional
[15] = target: T7, Tyrosine-protein phosphatase non-receptor type 22 (Homo sapiens, UniProt Q9Y2R2); assay: SAR LYP1 Fluorescent Assay using OMFP substrate for In Vitro dose response studies - Set 3. [Related pubchem assays (depositor defined):AID1779, AID1784, AID2140, AID2686]; type: functional
T7 sequence (Q9Y2R2 whole entry): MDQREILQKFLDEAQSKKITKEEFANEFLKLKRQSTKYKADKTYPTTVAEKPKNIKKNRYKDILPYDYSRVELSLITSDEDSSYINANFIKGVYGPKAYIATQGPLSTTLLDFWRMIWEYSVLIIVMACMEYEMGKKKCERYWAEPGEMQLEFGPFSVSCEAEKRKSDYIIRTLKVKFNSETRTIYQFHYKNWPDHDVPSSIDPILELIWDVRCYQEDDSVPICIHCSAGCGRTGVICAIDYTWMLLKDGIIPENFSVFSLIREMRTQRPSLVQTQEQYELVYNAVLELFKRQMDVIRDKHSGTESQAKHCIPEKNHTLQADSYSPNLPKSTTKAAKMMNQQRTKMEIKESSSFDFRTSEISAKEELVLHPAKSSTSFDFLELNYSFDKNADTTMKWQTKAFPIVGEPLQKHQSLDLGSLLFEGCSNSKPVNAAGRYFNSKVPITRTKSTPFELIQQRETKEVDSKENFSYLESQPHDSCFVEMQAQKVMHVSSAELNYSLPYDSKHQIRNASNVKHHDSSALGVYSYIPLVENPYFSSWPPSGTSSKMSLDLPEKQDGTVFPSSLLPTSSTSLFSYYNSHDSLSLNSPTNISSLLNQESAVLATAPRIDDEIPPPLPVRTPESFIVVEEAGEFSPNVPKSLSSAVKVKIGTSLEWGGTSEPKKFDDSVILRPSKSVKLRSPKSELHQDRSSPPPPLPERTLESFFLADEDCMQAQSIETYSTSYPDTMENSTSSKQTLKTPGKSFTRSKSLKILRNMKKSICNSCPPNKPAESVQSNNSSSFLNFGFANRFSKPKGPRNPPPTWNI

[16] = target: T8, Tyrosine-protein phosphatase non-receptor type 7 (Homo sapiens, UniProt P35236); assay: redox-dependent HePTP inhibition, mechanism study, biochemical, fluorescence (AID 2068); type: functional
T8 sequence (P35236 whole entry): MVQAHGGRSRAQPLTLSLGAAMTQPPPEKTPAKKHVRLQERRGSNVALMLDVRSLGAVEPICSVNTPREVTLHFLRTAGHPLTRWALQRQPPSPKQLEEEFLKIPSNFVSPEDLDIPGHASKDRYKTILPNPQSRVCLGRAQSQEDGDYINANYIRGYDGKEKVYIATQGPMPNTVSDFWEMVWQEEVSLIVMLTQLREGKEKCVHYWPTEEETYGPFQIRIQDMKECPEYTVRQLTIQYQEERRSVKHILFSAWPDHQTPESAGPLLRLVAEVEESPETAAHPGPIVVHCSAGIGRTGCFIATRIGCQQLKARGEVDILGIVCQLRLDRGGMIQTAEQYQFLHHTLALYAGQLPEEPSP

[17] = target: T8, Tyrosine-protein phosphatase non-receptor type 7; assay: HePTP (PTPN7) phosphatase inhibitor potency, SAR follow-up, biochemical, set 2 (AID 449736); type: functional
[18] = target: T7, Tyrosine-protein phosphatase non-receptor type 22; assay: LYP (PTPN22) phosphatase inhibitor potency, SAR follow-up, biochemical, pCAP fluorogenic substrate, fluorescence, set 3 (AID 449727); type: functional
[19] = target: T9, Dual specificity protein phosphatase 6 (Rattus norvegicus, UniProt Q64346); type: functional;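 also: confirmatory in vitro dose-response testing of MKP-3 inhibition; recombinant His-tagged MKP-3 made in E. coli BL21 with OMFP substrate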
T9 sequence (Q64346 whole entry): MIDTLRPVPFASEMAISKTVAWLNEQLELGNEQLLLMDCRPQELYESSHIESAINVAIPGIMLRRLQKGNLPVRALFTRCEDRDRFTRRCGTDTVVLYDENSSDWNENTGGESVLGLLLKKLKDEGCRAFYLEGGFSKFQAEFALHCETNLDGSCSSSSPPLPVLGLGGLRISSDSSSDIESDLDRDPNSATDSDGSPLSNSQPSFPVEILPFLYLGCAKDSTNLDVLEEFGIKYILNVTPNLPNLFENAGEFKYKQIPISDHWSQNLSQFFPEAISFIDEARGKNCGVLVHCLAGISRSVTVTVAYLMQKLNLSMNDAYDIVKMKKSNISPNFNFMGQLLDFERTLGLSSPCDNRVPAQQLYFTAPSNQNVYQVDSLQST

Question: For O=C(NN1C(=O)/C(=C/c2nc3ccccc3[nH]2)SC1=S)c1cccc(Cl)c1, which EC50 [1] is on record?
Answer: > 79.4 µM (inactive)

Question: And the EC50 [2]?
Answer: > 79.4 µM (not active)

Question: What about the EC50 [3] of the same compound?
Answer: > 79.4 µM (not active)

Question: And the EC50 [4]?
Answer: 7.01 µM (active)

Question: Which EC50 (Hexokinase HKDC1) does the source give for O=NNc1nc2ccccc2n1Cc1ccccc1 here?
Answer: 18.3 µM (active)

Question: And the EC50 (Hexokinase-1)?
Answer: > 80 µM (inactive)

Question: Which results are given for CC(C)(C)c1ccc(-c2c(-c3nc4ccccc4[nH]3)n[nH]c2-c2ccccc2)cc1?
Answer: EC50 [5]: > 32 µM (inactive); EC50 (Cannabinoid receptor 1 [6]): > 32 µM (inactive); IC50 [7]: > 32 µM (inactive); IC50 (Cannabinoid receptor 1 [8]): 0.474 µM (active); IC50 [9]: 11.7 µM (inactive); IC50 (Cannabinoid receptor 2 [10]): 13.9 µM (inactive); EC50 (Cannabinoid receptor 2 [11]): > 32 µM (inactive)

Question: With CSc1ccc(OCC(=O)O)cc1C as the compound, how does the IC50 [12] read?
Answer: > 100 µM (inactive)

Question: And the IC50 [13]?
Answer: > 100 µM (inactive)

Question: What about the IC50 [14] of the same compound?
Answer: > 99 µM (inactive)

Question: What about the IC50 [15] of the same compound?
Answer: > 100 µM (inactive)

Question: And the IC50 [16]?
Answer: > 100 µM (inactive)

Question: What about the IC50 [17] of the same compound?
Answer: > 100 µM (inactive)

Question: What about the IC50 [18] of the same compound?
Answer: > 100 µM (inactive)

Question: What about the IC50 [19] of the same compound?
Answer: > 99 µM (inactive)

— ChEMBL document CHEMBL1201862, “PubChem BioAssay data set” (2004)
